Measured values reported in patent US10322110B2, “Imidazole-based antimicrobial agents” (priority 2014, dated 2019).
≈ marks a conversion by molar mass, not a printed value. Read-outs that look alike come from different tables or passages of the source.

Assays:
Assay type in all cases: cell-based
[1] = test system: Staphylococcus aureus MSSA (Newman); test: broth microdilution MIC assay, Staphylococcus aureus MSSA (Newman); conditions: for MIC: Staphylococcus aureus; for Antibacterial activity Staphylococcus aureus (MSSA): MIC100 class score, broth microdilution
[2] = test system: penicillin-, erythromycin- and tetracycline-resistant Streptococcus pneumoniae (ATCC 700677), ARSP; test: microbe, parasite or virus in culture
[3] = test system: Bacillus subtilis (Marburg strain, ATCC6051); test: microbe, parasite or virus in culture; conditions: ATCC6051, read-out: Antibacterial activity BS (Bacillus substilis)
[4] = test system: Human hepatocytes (HepaRG cells); test: human cytotoxicity assay in vitro (CellTiter-Glo), hepatocytes; conditions: cytotoxicity class
[5] = test system: Staphylococcus aureus MRSA (COL); test: broth microdilution MIC assay, Staphylococcus aureus MRSA (COL); conditions: for MIC: Staphylococcus aureus, MRSA
[6] = test system: Staphylococcus epidermidis (PCI 1200, ATCC12228); test: broth microdilution MIC assay, Staphylococcus epidermidis; conditions: ATCC12228, read-out: Antibacterial activity SE (Staphylococcus epidermidis)
[7] = test system: Streptococcus pneumoniae (Chester, ATCC49619); test: broth microdilution MIC assay, Streptococcus pneumoniae; conditions: MIC100 class score, 24 h
[8] = 24 h, read-out: Antibacterial activity Staphylococcus aureus (MSSA)
[9] = read-out: Antibacterial activity MSSA (Staphylococcus aureus MSSA)
[10] = ATCC700677, MIC activity class, read-out: Antibacterial activity ARSP (multi-drug resistant-SP)
[11] = 24 h, read-out: Antibacterial activity Staphylococcus aureus (MRSA)
[12] = read-out: Antibacterial activity MRSA (Staphylococcus aureus MRSA)
[13] = MIC100 class score, broth microdilution, 24 h
[14] = ATCC700677, read-out: Antibacterial activity ARSP (multi-drug resistant-SP)
[15] = MIC100 class score, broth microdilution, 24 h, read-out: Antibacterial activity Staphylococcus aureus (MRSA)

Cc1[nH]c(-c2ccc(-c3cccc(Cl)c3Cl)o2)nc1-c1ccccc1 [Compound 2]
MIC [1, 8]: 20 to 50 µg/mL (≈ 54.2 to 135 µM)
MIC [1, 9]: 20 to 50 µg/mL (≈ 54.2 to 135 µM)
MIC [2, 10]: 2 to 5 µg/mL (≈ 5.42 to 13.5 µM)
MIC [3]: 20 to 50 µg/mL (≈ 54.2 to 135 µM)
cytotoxicity cell line H (hepatocytes) [4]: 2

Cc1nc(-c2ccc(-c3ccc(Cl)cc3)o2)[nH]c1-c1ccccc1 [Compound 5]
MIC [1, 8]: 1 to 3 µg/mL (≈ 2.99 to 8.96 µM)
MIC [1, 9]: 1 to 3 µg/mL (≈ 2.99 to 8.96 µM)
MIC [5, 11]: 3 to 10 µg/mL (≈ 8.96 to 29.9 µM)
MIC [5, 12]: 3 to 10 µg/mL (≈ 8.96 to 29.9 µM)
MIC [6]: 3 to 10 µg/mL (≈ 8.96 to 29.9 µM)
cytotoxicity cell line H (hepatocytes) [4]: 2

Cc1[nH]c(-c2ccc(-c3ccccc3C(F)(F)F)o2)nc1-c1ccccc1 [Compound 17]
MIC [1, 8]: 3 to 10 µg/mL (≈ 8.14 to 27.1 µM)
MIC [1, 9]: 3 to 10 µg/mL (≈ 8.14 to 27.1 µM)
MIC [5, 11]: 1 to 3 µg/mL (≈ 2.71 to 8.14 µM)
MIC [5, 12]: 1 to 3 µg/mL (≈ 2.71 to 8.14 µM)
MIC [6]: 20 to 50 µg/mL (≈ 54.3 to 136 µM)
MIC [3]: 1 to 3 µg/mL (≈ 2.71 to 8.14 µM)
cytotoxicity cell line H (hepatocytes) [4]: 3

Cc1[nH]c(-c2ccc(-c3ccccc3OC(F)(F)F)o2)nc1-c1ccccc1 [Compound 18]
MIC [1, 8]: 1 to 3 µg/mL (≈ 2.6 to 7.81 µM)
MIC [1, 9]: 1 to 3 µg/mL (≈ 2.6 to 7.81 µM)
MIC [5, 11]: 3 to 10 µg/mL (≈ 7.81 to 26 µM)
MIC [5, 12]: 3 to 10 µg/mL (≈ 7.81 to 26 µM)
MIC [2, 10]: < 1 µg/mL
MIC [6]: 3 to 10 µg/mL (≈ 7.81 to 26 µM)
MIC [3]: 1 to 3 µg/mL (≈ 2.6 to 7.81 µM)
cytotoxicity cell line H (hepatocytes) [4]: 2

Cc1nc(-c2ccc(-c3ccccc3C(F)(F)F)o2)[nH]c1-c1ccccc1Cl [Compound 20]
MIC [1, 9]: 20 to 50 µg/mL (≈ 49.7 to 124 µM)
MIC [2, 10]: 2 to 5 µg/mL (≈ 4.97 to 12.4 µM)
MIC [3]: 20 to 50 µg/mL (≈ 49.7 to 124 µM)
cytotoxicity cell line H (hepatocytes) [4]: 3

Cc1nc(-c2ccc(-c3ccccc3OC(F)(F)F)o2)[nH]c1-c1cccc(Cl)c1 [Compound 21]
Antibacterial activity Staphylococcus aureus (MSSA) ([1]; 24 h): 3 (MIC100 of 3-10 μg/ml)
MIC [1, 9]: 1 to 3 µg/mL (≈ 2.39 to 7.16 µM)
Antibacterial activity Staphylococcus aureus (MRSA) [5, 13]: 3 (MIC100 of 3-10 μg/ml)
MIC [2, 10]: < 1 µg/mL
MIC [6]: 20 to 50 µg/mL (≈ 47.8 to 119 µM)
MIC [3]: 3 to 10 µg/mL (≈ 7.16 to 23.9 µM)
cytotoxicity cell line H (hepatocytes) [4]: 3

Cc1[nH]c(-c2ccc(-c3ccccc3C(F)(F)F)o2)nc1-c1ccc(Br)cc1 [Compound 25]
Antibacterial activity Streptococcus pneumoniae [7]: 3 (MIC100 of 2-5 μg/ml)
MIC [3]: 20 to 50 µg/mL (≈ 44.7 to 112 µM)

Cc1[nH]c(-c2ccc(-c3ccccc3OC(F)(F)F)o2)nc1-c1ccc(C(F)(F)F)cc1 [Compound 26]
Antibacterial activity Streptococcus pneumoniae [7]: 3 (MIC100 of 2-5 μg/ml)
MIC [2, 14]: 6 to 10 µg/mL (≈ 13.3 to 22.1 µM)

CCc1ccc(-c2[nH]c(-c3ccc(-c4ccccc4C(F)(F)F)o3)nc2C)cc1 [Compound 28]
Antibacterial activity Streptococcus pneumoniae [7]: 3 (MIC100 of 2-5 μg/ml)
MIC [1, 9]: 20 to 50 µg/mL (≈ 50.5 to 126 µM)
MIC [5, 12]: 20 to 50 µg/mL (≈ 50.5 to 126 µM)
MIC [3]: 1 to 3 µg/mL (≈ 2.52 to 7.57 µM)

Cc1nc(-c2ccc(-c3cc(F)ccc3C(F)(F)F)o2)[nH]c1-c1ccccc1 [Compound 31a]
MIC [1, 8]: 20 to 50 µg/mL (≈ 51.8 to 129 µM)
MIC [1, 9]: 20 to 50 µg/mL (≈ 51.8 to 129 µM)
MIC [2, 10]: 2 to 5 µg/mL (≈ 5.18 to 12.9 µM)
MIC [3]: 20 to 50 µg/mL (≈ 51.8 to 129 µM)
cytotoxicity cell line H (hepatocytes) [4]: 2

Cc1nc(-c2ccc(-c3ccc(Cl)cc3C(F)(F)F)o2)[nH]c1-c1ccccc1 [Compound 32]
MIC [1, 8]: 1 to 3 µg/mL (≈ 2.48 to 7.45 µM)
MIC [1, 9]: 1 to 3 µg/mL (≈ 2.48 to 7.45 µM)
MIC [5, 11]: 3 to 10 µg/mL (≈ 7.45 to 24.8 µM)
MIC [5, 12]: 3 to 10 µg/mL (≈ 7.45 to 24.8 µM)
MIC [6]: 3 to 10 µg/mL (≈ 7.45 to 24.8 µM)
cytotoxicity cell line H (hepatocytes) [4]: 2

Cc1nc(-c2ccc(-c3cc(C(F)(F)F)cc(C(F)(F)F)c3)o2)[nH]c1-c1ccccc1 [Compound 35]
MIC [1, 8]: 3 to 10 µg/mL (≈ 6.88 to 22.9 µM)
MIC [1, 9]: 3 to 10 µg/mL (≈ 6.88 to 22.9 µM)
MIC [5, 11]: 20 to 50 µg/mL (≈ 45.8 to 115 µM)
MIC [5, 12]: 20 to 50 µg/mL (≈ 45.8 to 115 µM)
MIC [2, 10]: 6 to 10 µg/mL (≈ 13.8 to 22.9 µM)
MIC [6]: 20 to 50 µg/mL (≈ 45.8 to 115 µM)
MIC [3]: 3 to 10 µg/mL (≈ 6.88 to 22.9 µM)

Cc1[nH]c(-c2ccc(-c3cccc(C(F)(F)F)c3)o2)nc1-c1ccc(F)cc1 [Compound 38]
Antibacterial activity Streptococcus pneumoniae [7]: 3 (MIC100 of 2-5 μg/ml)
MIC [1, 9]: 1 to 3 µg/mL (≈ 2.59 to 7.77 µM)
MIC [5, 12]: 1 to 3 µg/mL (≈ 2.59 to 7.77 µM)
MIC [2, 14]: < 1 µg/mL
MIC [6]: 3 to 10 µg/mL (≈ 7.77 to 25.9 µM)

Cc1[nH]c(-c2ccc(-c3ccc(Cl)c(C(F)(F)F)c3)o2)nc1-c1ccccc1 [Compound 39]
MIC [1, 8]: 3 to 10 µg/mL (≈ 7.45 to 24.8 µM)
MIC [1, 9]: 1 to 3 µg/mL (≈ 2.48 to 7.45 µM)
MIC [5, 12]: 3 to 10 µg/mL (≈ 7.45 to 24.8 µM)
MIC [5, 15]: 3 to 10 µg/mL (≈ 7.45 to 24.8 µM)
MIC [2, 10]: 2 to 5 µg/mL (≈ 4.97 to 12.4 µM)
MIC [6]: 1 to 3 µg/mL (≈ 2.48 to 7.45 µM)
MIC [3]: 3 to 10 µg/mL (≈ 7.45 to 24.8 µM)

Cc1[nH]c(-c2ccc(-c3ccc(Cl)c(C(F)(F)F)c3)o2)nc1-c1ccc(F)cc1 [Compound 42]
MIC [1, 9]: 1 to 3 µg/mL (≈ 2.38 to 7.13 µM)
MIC [2, 10]: < 1 µg/mL
MIC [6]: 3 to 10 µg/mL (≈ 7.13 to 23.8 µM)
MIC [3]: 1 to 3 µg/mL (≈ 2.38 to 7.13 µM)

Cc1nc(-c2ccc(-c3ccc(Cl)c(OC(F)(F)F)c3)o2)[nH]c1-c1ccc(Cl)cc1 [Compound 44]
MIC [1, 9]: 1 to 3 µg/mL (≈ 2.21 to 6.62 µM)
Antibacterial activity Staphylococcus aureus (MRSA) [5, 13]: 2 (MIC100 of 11-201 μg/ml)
MIC [5, 12]: 11 to 201 µg/mL (≈ 24.3 to 443 µM)
MIC [6]: 11 to 201 µg/mL (≈ 24.3 to 443 µM)
MIC [3]: 1 to 3 µg/mL (≈ 2.21 to 6.62 µM)
cytotoxicity cell line H (hepatocytes) [4]: 2

Cc1[nH]c(-c2ccc(-c3ccc(C(F)(F)F)cc3)o2)nc1-c1ccccc1 [Compound 45]
MIC [1, 8]: 3 to 10 µg/mL (≈ 8.14 to 27.1 µM)
MIC [1, 9]: 3 to 10 µg/mL (≈ 8.14 to 27.1 µM)
MIC [5, 12]: 11 to 201 µg/mL (≈ 29.9 to 546 µM)
MIC [5, 15]: 3 to 10 µg/mL (≈ 8.14 to 27.1 µM)
MIC [2, 10]: 2 to 5 µg/mL (≈ 5.43 to 13.6 µM)
MIC [6]: 3 to 10 µg/mL (≈ 8.14 to 27.1 µM)
MIC [3]: 3 to 10 µg/mL (≈ 8.14 to 27.1 µM)

Cc1[nH]c(-c2ccc(-c3ccc(C(F)(F)F)cc3)s2)nc1-c1ccccc1 [Compound 46]
Antibacterial activity Streptococcus pneumoniae [7]: 3 (MIC100 of 2-5 μg/ml)
Antibacterial activity Staphylococcus aureus (MSSA) ([1]; 24 h): 2 (MIC100 of 11-201 μg/ml)
MIC [1, 9]: 11 to 201 µg/mL (≈ 28.6 to 523 µM)
MIC [2, 14]: 2 to 5 µg/mL (≈ 5.2 to 13 µM)

Cc1[nH]c(-c2ccc(-c3ccc(C(F)(F)F)c(Cl)c3)o2)nc1-c1ccc(F)cc1 [Compound 49]
Antibacterial activity Streptococcus pneumoniae [7]: 3 (MIC100 of 2-5 μg/ml)
Antibacterial activity Staphylococcus aureus (MSSA) ([1]; 24 h): 3 (MIC100 of 3-10 μg/ml)
MIC [1, 9]: 3 to 10 µg/mL (≈ 7.13 to 23.8 µM)
Antibacterial activity Staphylococcus aureus (MRSA) [5, 13]: 2 (MIC100 of 11-201 μg/ml)
MIC [5, 12]: 3 to 10 µg/mL (≈ 7.13 to 23.8 µM)
MIC [2, 14]: < 1 µg/mL
MIC [6]: 11 to 201 µg/mL (≈ 26.1 to 478 µM)
cytotoxicity cell line H (hepatocytes) [4]: 3

FC(F)(F)Oc1ccccc1-c1ccc(-c2ncc(-c3ccccc3)[nH]2)o1 [Compound 63]
Antibacterial activity Streptococcus pneumoniae [7]: 3 (MIC100 of 2-5 μg/ml)
Antibacterial activity Staphylococcus aureus (MSSA) ([1]; 24 h): 3 (MIC100 of 3-10 μg/ml)
MIC [1, 9]: 3 to 10 µg/mL (≈ 8.1 to 27 µM)
MIC [5, 12]: 3 to 10 µg/mL (≈ 8.1 to 27 µM)
MIC [6]: 3 to 10 µg/mL (≈ 8.1 to 27 µM)
cytotoxicity cell line H (hepatocytes) [4]: 2

FC(F)(F)Oc1ccccc1-c1ccc(-c2nc(-c3ccccc3Cl)c[nH]2)o1 [Compound 67]
Antibacterial activity Streptococcus pneumoniae [7]: 3 (MIC100 of 2-5 μg/ml)
MIC [2, 14]: 6 to 10 µg/mL (≈ 14.8 to 24.7 µM)
MIC [6]: 11 to 201 µg/mL (≈ 27.2 to 497 µM)
cytotoxicity cell line H (hepatocytes) [4]: 2
